Laboratory results published in patent publication US9169254B2, “Spiroimidazolone derivative” (Chugai Seiyaku Kabushiki Kaisha, priority 2009, dated 2015).

target: T1, human PTH1 receptor (Homo sapiens, UniProt Q03431); test: In vitro cAMP signal activity in HKRK-B7 cells (LLC-PK1 cells overexpressing the human PTH1 receptor); format: cell-based; conditions: HKRK-B7 cells; compound at 1×10^−3 M; cAMP produced as percentage of that produced by hPTH(1-34) at 100 nM
T1 sequence (Q03431 27-593): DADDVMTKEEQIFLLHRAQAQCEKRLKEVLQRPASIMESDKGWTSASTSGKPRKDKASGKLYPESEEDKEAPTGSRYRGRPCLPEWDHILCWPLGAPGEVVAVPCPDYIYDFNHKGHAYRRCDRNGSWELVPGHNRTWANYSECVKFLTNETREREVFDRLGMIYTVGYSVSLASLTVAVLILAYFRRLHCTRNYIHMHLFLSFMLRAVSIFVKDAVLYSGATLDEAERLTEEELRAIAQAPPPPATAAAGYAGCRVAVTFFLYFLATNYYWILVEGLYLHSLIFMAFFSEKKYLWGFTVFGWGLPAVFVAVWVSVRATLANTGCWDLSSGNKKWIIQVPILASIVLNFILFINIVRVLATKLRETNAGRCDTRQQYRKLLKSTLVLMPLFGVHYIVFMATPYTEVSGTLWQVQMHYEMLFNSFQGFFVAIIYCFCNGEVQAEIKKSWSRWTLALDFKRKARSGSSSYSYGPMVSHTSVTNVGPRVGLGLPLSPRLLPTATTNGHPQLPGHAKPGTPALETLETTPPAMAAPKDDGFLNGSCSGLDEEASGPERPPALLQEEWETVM

First: CCC[C@@H]1CCC[C@H](C2=NC3(CCN(S(=O)(=O)/C=C/c4c(C)cc(N(C)C(N)=O)cc4C)CC3)C(=O)N2)C1 [Compound 1108, 1-(3,5-Dimethyl-4-{(E)-2-[4-oxo-2-((1S,3R)-3-propyl-cyclohexyl)-1,3,8-triaza-spiro[4.5]dec-1-ene-8-sulfonyl]-vinyl}-phenyl)-1-methyl-urea]
Second: Cc1cc(N(C)C(N)=O)cc(C)c1C1CC1S(=O)(=O)N1CCC2(CC1)N=C(C1CCC(C)CC1)NC2=O (stereo not drawn) [Compound 740, 1-(3,5-Dimethyl-4-{2-[2-(4-methyl-cyclohexyl)-4-oxo-1,3,8-triaza-spiro[4.5]dec-1-ene-8-sulfonyl]-cyclopropyl}-phenyl)-1-methyl-urea]
The “cAMP production activity (%)” value of the first is lower: 99% for the first, 123% for the second.

First: Cc1cc2ccc1CCS(=O)(=O)N1CCC3(CC1)N=C(NC3=O)c1cc(cc(C(F)(F)F)c1)OCCC(O)C(O)CCCN(C)C2=O (stereo not drawn) [Compound 1430]
Second: Cc1cc(C(=O)N2CCC(O)CC2)cc(C)c1/C=C/[S@TB4](=O)(=O)N1CCC2(CC1)N=C(c1ccc(F)c(OC(F)(F)F)c1)NC2=O [Compound 1159, 2-(4-fluoro-3-trifluoromethoxy-phenyl)-8-{(E)-2-[4-(4-hydroxy-piperidine-1-carbonyl)-2,6-dimethyl-phenyl]-ethenesulfonyl}-1,3,8-triaza-spiro[4.5]dec-1-en-4-one]
The “cAMP production activity (%)” value of the first is lower: 13% for the first, 87% for the second.

Going from `CCOCc1cc(NC(C)=O)ccc1CCS(=O)(=O)N1CCC2(CC1)N=C(C1CCC(C)CC1)NC2=O` (stereo not drawn) [Compound 753, N-(3-ethoxymethyl-4-{2-[2-(4-methyl-cyclohexyl)-4-oxo-1,3,8-triaza-spiro[4.5]dec-1-ene-8-sulfonyl]-ethyl}-phenyl)-acetamide] to `CC(=O)Nc1ccc(CCS(=O)(=O)N2CCC3(CC2)N=C([C@H]2CC[C@@H](CC=C(F)F)CC2)NC3=O)c(C)c1` [Compound 1068, N-[4-(2-{2-[4-(3,3-difluoro-allyl)-cyclohexyl]-4-oxo-1,3,8-triaza-spiro[4.5]dec-1-ene-8-sulfonyl}-ethyl)-3-methyl-phenyl]-acetamide], the “cAMP production activity (%)” value falls from 104% to 68%.

Compared with `O=C1NC(C2CCCCC2)=NC12CCN(S(=O)(=O)/C=C/c1cccc3c1ccn3CCC(O)CO)CC2` (stereo not drawn) [Compound 480, 2-cyclohexyl-8-{(E)-2-[1-(3,4-dihydroxy-butyl)-1H-indol-4-yl]-ethenesulfonyl}-1,3,8-triaza-spiro[4.5]dec-1-en-4-one], `O=C1NC(C2CCCCC2)=NC12CCCN(S(=O)(=O)c1cccc(Cl)c1)C2` (stereo not drawn) [Compound 71, 7-(3-chloro-benzenesulfonyl)-2-cyclohexyl-1,3,7-triaza-spiro[4.5]dec-1-en-4-one] is lower in “cAMP production activity (%)” value: 44% for the first, 3.7% for the second.

First: O=C1NC(C2CCCN(S(=O)(=O)Cc3ccccc3)C2)=NC12CCN(S(=O)(=O)c1cccc(Cl)c1)CC2 (stereo not drawn) [Compound 42, 8-(3-chloro-benzenesulfonyl)-2-(1-phenylmethanesulfonyl-piperidin-3-yl)-1,3,8-triaza-spiro[4.5]dec-1-en-4-one]
Second: O=C(c1cccc(C2=NC3(CCN(S(=O)(=O)c4cccc(Cl)c4)CC3)C(=O)N2)c1)N1CCOCC1 [Compound 348, 8-(3-Chloro-benzenesulfonyl)-2-[3-(morpholine-4-carbonyl)-phenyl]-1,3,8-triaza-spiro[4.5]dec-1-en-4-one]
The “cAMP production activity (%)” value of the first is higher: 27% for the first, 5.6% for the second.

Compared with `Cc1cc2c(ccn2C[C@@H](O)CO)c(C)c1CCS(=O)(=O)N1CCC2(CC1)N=C(C1CCC(CCC(F)(F)F)CC1)NC2=O` (stereo partly drawn) [Compound 791, 8-{2-[1-((R)-2,3-dihydroxy-propyl)-4,6-dimethyl-1H-indol-5-yl]-ethanesulfonyl}-2-[4-(3,3,3-trifluoro-propyl)-cyclohexyl]-1,3,8-triaza-spiro[4.5]dec-1-en-4-one], `COCCN(C(N)=O)c1cc(C)c(CCS(=O)(=O)N2CCC3(CC2)N=C(C2CCC(CCC(F)(F)F)CC2)NC3=O)c(C)c1` (stereo not drawn) [Compound 827, 1-[3,5-dimethyl-4-(2-{4-oxo-2-[4-(3,3,3-trifluoro-propyl)-cyclohexyl]-1,3,8-triaza-spiro[4.5]dec-1-ene-8-sulfonyl}-ethyl)-phenyl]-1-(2-methoxy-ethyl)-urea] is higher in “cAMP production activity (%)” value: 6.1% for the first, 78% for the second.

Compared with `Cc1cc(N(CC#N)C(N)=O)ccc1/C=C/S(=O)(=O)N1CCC2(CC1)N=C(c1cccc(OC(F)(F)F)c1)NC2=O` [Compound 729, 1-Cyanomethyl-1-(3-methyl-4-{(E)-2-[4-oxo-2-(3-trifluoromethoxy-phenyl)-1,3,8-triaza-spiro[4.5]dec-1-ene-8-sulfonyl]-vinyl}-phenyl)-urea], `Cc1cc(N(C)C(N)=O)cc(C)c1CC(C)S(=O)(=O)N1CCC2(CC1)N=C(c1cccc(OC(F)(F)F)c1)NC2=O` (stereo not drawn) [Compound 1090, 1-(3,5-Dimethyl-4-{2-[4-oxo-2-(3-trifluoromethoxy-phenyl)-1,3,8-triaza-spiro[4.5]dec-1-ene-8-sulfonyl]-propyl}-phenyl)-1-methyl-urea] is higher in “cAMP production activity (%)” value: 45% for the first, 118% for the second.

First: CC(=O)N(C)c1ccc(/C(F)=C\S(=O)(=O)N2CCC3(CC2)N=C(C2CCC(C)CC2)NC3=O)c(C)c1 (stereo not drawn) [Compound 942, N-(4-{(E)-1-Fluoro-2-[2-(4-methyl-cyclohexyl)-4-oxo-1,3,8-triaza-spiro[4.5]dec-1-ene-8-sulfonyl]-vinyl}-3-methyl-phenyl)-N-methyl-acetamide]
Second: Cc1cc(NC(=O)NCC(=O)O)ccc1/C=C/S(=O)(=O)N1CCC2(CC1)N=C(C1CCC(C)CC1)NC2=O (stereo not drawn) [Compound 1169, [3-(3-methyl-4-{(E)-2-[2-(4-methyl-cyclohexyl)-4-oxo-1,3,8-triaza-spiro[4.5]dec-1-ene-8-sulfonyl]-vinyl}-phenyl)-ureido]-acetic acid]
The “cAMP production activity (%)” value of the first is lower: 31% for the first, 50% for the second.

First: O=C1NC(CCC2CCCCC2)=NC12CCN(S(=O)(=O)c1cccc(Cl)c1)CC2 [Compound 30, 8-(3-chloro-benzenesulfonyl)-2-(2-cyclohexyl-ethyl)-1,3,8-triaza-spiro[4.5]dec-1-en-4-one]
Second: Cc1cc(S(=O)(=O)NCCN(C)C)ccc1CCS(=O)(=O)N1CCC2(CC1)N=C(C1CCCCC1)NC2=O [Compound 844, 4-[2-(2-cyclohexyl-4-oxo-1,3,8-triaza-spiro[4.5]dec-1-ene-8-sulfonyl)-ethyl]-N-(2-dimethylamino-ethyl)-3-methyl-benzenesulfonamide]
The “cAMP production activity (%)” value of the first is lower: 26% for the first, 86% for the second.

First: Cc1cc(C(=O)N2CCC3(CC2)COC3)cc(C)c1CCS(=O)(=O)N1CCC2(CC1)N=C(c1ccc(F)c(C(F)(F)F)c1)NC2=O [Compound 804, 8-{2-[2,6-dimethyl-4-(2-oxa-7-aza-spiro[3.5]nonane-7-carbonyl)-phenyl]-ethanesulfonyl}-2-(4-fluoro-3-trifluoromethyl-phenyl)-1,3,8-triaza-spiro[4.5]dec-1-en-4-one]
Second: Cc1cc(C(=O)N2CCC(O)(CF)CC2)cc(C)c1/C=C/S(=O)(=O)N1CCC2(CC1)N=C(c1ccc3cc[nH]c3c1)NC2=O [Compound 1268, 8-{(E)-2-[4-(4-fluoromethyl-4-hydroxy-piperidine-1-carbonyl)-2,6-dimethyl-phenyl]-ethenesulfonyl}-2-(1H-indol-6-yl)-1,3,8-triaza-spiro[4.5]dec-1-en-4-one]
The “cAMP production activity (%)” value of the first is higher: 78% for the first, 33% for the second.

First: Cc1cc(N2C(=O)N(C)C(C)(C)C2=O)cc(C)c1CCS(=O)(=O)N1CCC2(CC1)N=C(C1CCC(C)CC1)NC2=O (stereo not drawn) [Compound 885, 3-(3,5-dimethyl-4-{2-[2-(4-methyl-cyclohexyl)-4-oxo-1,3,8-triaza-spiro[4.5]dec-1-ene-8-sulfonyl]-ethyl}-phenyl)-1,5,5-trimethyl-imidazolidine-2,4-dione]
Second: COCCC1CCC(C2=NC3(CCN(S(=O)(=O)CCc4ccc(C(=O)N(C)C)cc4C)CC3)C(=O)N2)CC1 (stereo not drawn) [Compound 902, 4-(2-{2-[4-(2-Methoxy-ethyl)-cyclohexyl]-4-oxo-1,3,8-triaza-spiro[4.5]dec-1-ene-8-sulfonyl}-ethyl)-3,N,N-trimethyl-benzamide]
The “cAMP production activity (%)” value of the first is lower: 58% for the first, 67% for the second.

Compared with `Cc1cc(C(=O)N2CCC(C)(O)CC2)cc(C)c1/C=C/S(=O)(=O)N1CCC2(CC1)N=C(c1ccc(OC(F)(F)F)cc1)NC2=O` [Compound 1198, 8-{(E)-2-[4-(4-hydroxy-4-methyl-piperidine-1-carbonyl)-2,6-dimethyl-phenyl]-ethenesulfonyl}-2-(4-trifluoromethoxy-phenyl)-1,3,8-triaza-spiro[4.5]dec-1-en-4-one], `Cc1cc(N(C)C(N)=O)cc(C)c1/C=C/S(=O)(=O)N1CCC2(CC1)N=C(CCCCCCCCC(F)(F)F)NC2=O` [Compound 1304, 1-(3,5-dimethyl-4-{(E)-2-[4-oxo-2-(9,9,9-trifluoro-nonyl)-1,3,8-triaza-spiro[4.5]dec-1-ene-8-sulfonyl]-vinyl}-phenyl)-1-methyl-urea] is higher in “cAMP production activity (%)” value: 88% for the first, 107% for the second.
